Values of other authors in paper PMC7036871, “Identification and Characterization of pantocin wh-1, a Novel Cyclic Polypeptide Produced by Pantoea dispersa W18” (Molecules, 2020).
In brackets after ≈: the same amount, converted by molar mass. Where two headings read alike, the source gives them in different places.

System: M. tuberculosis
Parameters: method as in 8 sources, ref [15],[16] = [15]; PMID 24684906; doi:10.1016/j.chembiol.2014.01.014; 15. Gavrish E. Sit C.S. Cao S. Kandror O. Spoering A. Peoples A. Ling L. Fetterman A. Hughes D. Bissell A. Lassomycin, a ribosomally synthesized cyclic peptide, kills mycobacterium tuberculosis by tar || [16]; PMID 24766844; doi:10.1016/j.chembiol.2014.04.002; 16. Parish T. Targeting mycobacterial proteolytic complexes with natural products Chem. Biol. 2014 21 437 438 10.1016/j.chembiol.2014.04.002 24766844 ||| ref [17] = [17]; PMID 25421483; doi:10.1128/AAC.04054-14; 17. Gao W. Kim J.Y. Anderson J.R. Akopian T. Hong S. Jin Y.Y. Kandror O. Kim J.W. Lee I.A. Lee S.Y. The cyclic peptide ecumicin targeting ClpC1 is active against Mycobacterium tuberculosis in vivo Ant ||| ref [18],[19] = [18]; PMID 21969594; doi:10.1073/pnas.1110385108; 18. Sass P. Josten M. Famulla K. Schiffer G. Sahl H.G. Hamoen L. Brotz-Oesterhelt H. Antibiotic acyldepsipeptides activate ClpP peptidase to degrade the cell division protein FtsZ Proc. Natl. Acad. Sc || [19]; PMID 22123255; doi:10.1128/JB.06142-11; 19. Ollinger J. O’Malley T. Kesicki E.A. Odingo J. Parish T. Validation of the Essential ClpP Protease in Mycobacterium tuberculosis as a Novel Drug Target J. Bacteriol. 2012 194 663 668 10.1128/JB.06 ||| ref [20] = [20]; PMID 22987724; doi:10.1002/emmm.201201689; 20. Hartkoorn R.C. Sala C. Neres J. Pojer F. Magnet S. Mukherjee R. Uplekar S. Boy-Rottger S. Altmann K.H. Cole S.T. Towards a new tuberculosis drug: Pyridomycin-nature’s isoniazid Embo. Mol. Med. 201 ||| ref [21] = [21]; PMID 10747933; doi:10.1074/jbc.M000569200; 21. Kremer L. Douglas J.D. Baulard A.R. Morehouse C. Guy M.R. Alland D. Dover L.G. Lakey J.H. Jacobs W.R. Brennan P.J. Thiolactomycin and related analogues as novel anti-mycobacterial agents targeting ||| ...
Settings: anti-TB, cited from earlier work

**Q.** Which MIC (target β-ketoacyl-ACP synthase, ref [21]) does the source give for `C=C/C(C)=C/[C@@]1(C)SC(=O)C(C)=C1O` [Thiolactomycin] here?
**A.** 92.5 µM (≈ 19.5 µg/mL)

**Q.** With Cyclomarin A as the compound, how does the MIC (target ClpC1, ref [22],[23]) read?
**A.** 0.3 to 2.5 µM

**Q.** Which MIC (target ClpC1, ref [17]) does the source give for Ecumicin here?
**A.** 0.13 to 0.3 µM

**Q.** With Ilamycins as the compound, how does the MIC (target not given, ref [25]) read?
**A.** 0.0098 µM

**Q.** Which MIC (target ClpC1, ref [15],[16]) does the source give for Lassomycin here?
**A.** 0.42 to 1.57 µM

**Q.** For Teixobactin, which MIC (target lipid II, ref [24]) is on record?
**A.** 0.125 µM
